Data from ChEMBL document CHEMBL1136662, “Synthesis and properties of 11-(3,5-di-tert-butyl-2-hydroxyphenylcarbamoyl)undecanoic acid, a new amphiphilic antioxidant” (Bioorg Med Chem Lett, 2003).

Assay: Hydrophobicity was determined
Format: ADME

SMILES	k'
CCCCCCCCCCCCCC(=O)Nc1cc(C(C)(C)C)cc(C(C)(C)C)c1O	25.2
CCCCCCCCCCCC(=O)Nc1cc(C(C)(C)C)cc(C(C)(C)C)c1O	12.6
CCCCCCCCCC(=O)Nc1cc(C(C)(C)C)cc(C(C)(C)C)c1O	7.13
COCCCCCCCCCCCC(=O)Nc1cc(C(C)(C)C)cc(C(C)(C)C)c1O	6.39
CC(C)(C)c1cc(NC(=O)CCCCCCCCC(=O)O)c(O)c(C(C)(C)C)c1	0.38
